In US4324728A, “Compound nanaomycin A and derivatives thereof and a process for producing the same” (The Kitasato Institute, priority 1976, dated 1982):
In brackets after ≈: the same amount, converted by molar mass. Where two headings read alike, the source gives them in different places.

Columns and labels:
[1] = test system: Staphylococcus aureus FDA 209P; assay: Minimal inhibitory concentration (agar); format: cell-based; conditions: FDA209P, 48 h, nutrient agar, pH 7.0, 2 days, 37° C.
[2] = test system: Bacillus subtilis PCI 219; assay: Minimal inhibitory concentration (agar); format: cell-based; conditions: pH 7.0, 2 days, 37° C.
Method: (§1) Medium N nutrient agar (pH 7.0, 2 days, 37° C.)
(§2) MIC Minimal inhibitory concentration
(§3) N nutrient agar (pH 7.0, 2 days, 37° C.)

[3] = test system: Sarcina lutea PCI 1001; assay: Minimal inhibitory concentration (agar); format: cell-based; conditions: pH 7.0, 2 days, 37° C.
Method: as §1, §2, §3

[4] = test system: Staphylococcus aureus FDA 209P (JC-1); assay: Minimal inhibitory concentration (agar); format: cell-based; conditions: FDA209P, 48 h, nutrient agar, pH 7.0, 2 days, 37° C.
Method: as §1, §2, §3

[5] = test system: Salmonella typhimurium; assay: Minimal inhibitory concentration (agar); format: cell-based; conditions: Salmonella enterica, 48 h, pH 7.0, 2 days, 37° C.
[6] = test system: Candida albicans; assay: Minimal inhibitory concentration (agar); format: cell-based; conditions: pH 6.4, 4 days, 27° C.
Method: (§4) P potato agar (pH 6.4, 4 days, 27° C.)
as §2
(§5) Minimal inhibitory concentration was assayed by agar dilution method
(§6) (potato agar, pH 6.4, 27° C., 4 days).

[7] = test system: Trichophyton rubrum; assay: Minimal inhibitory concentration (agar); format: cell-based; conditions: pH 6.4, 4 days, 27° C.
Method: as §4, §2, §5, §6

[8] = test system: Trichophyton schoenleini; assay: Minimal inhibitory concentration (agar); format: cell-based; conditions: pH 6.4, 4 days, 27° C.
Method: as §4, §2, §5, §6

[9] = test system: Saccharomyces sake; assay: Minimal inhibitory concentration (agar); format: cell-based; conditions: Saccharomyces, 96 h, pH 6.4, 4 days, 27° C., read-out: MIC
[10] = test system: Microsporum gypseum 704; assay: Minimal inhibitory concentration (agar); format: cell-based; conditions: Nannizzia gypsea, 704, 96 h; potato agar, pH 6.4, 4 days, 27° C.
[11] = test system: Trichophyton asteroides; assay: Minimal inhibitory concentration (agar); format: cell-based; conditions: pH 6.4, 4 days, 27° C.
[12] = test system: Trichophyton ferrugineum; assay: Minimal inhibitory concentration (agar); format: cell-based; conditions: pH 6.4, 4 days, 27° C.
[13] = test system: Trichophyton roseum; assay: Minimal inhibitory concentration (agar); format: cell-based; conditions: pH 6.4, 4 days, 27° C.
[14] = test system: Mycobacterium smegmatis ATCC 607; assay: Minimal inhibitory concentration (agar); format: cell-based; conditions: Mycolicibacterium smegmatis, ATCC607, 48 h; nutrient agar, pH 7.0, 2 days, 37° C.
[15] = test system: Aspergillus fumigatus IAM 2162; assay: Minimal inhibitory concentration (agar); format: cell-based; conditions: IAM2162, 96 h, potato agar, pH 6.4, 4 days, 27° C.
Method: | P potato agar (pH 6.4, 4 days, 27° C.)

[16] = test system: Aerobacter aerogenes IAM 1183; assay: Minimal inhibitory concentration (agar); format: cell-based; conditions: Klebsiella aerogenes, IAM1183, 48 h; nutrient agar, pH 7.0, 2 days, 37° C.
Method: as §3

[17] = test system: Bacillus cereus T; assay: Minimal inhibitory concentration (agar); format: cell-based; conditions: 48 h, nutrient agar, pH 7.0, 2 days, 37° C.
Method: as §3

[18] = test system: Corynebacterium paurometabolum; assay: Minimal inhibitory concentration (agar); format: cell-based; conditions: Tsukamurella paurometabola, 48 h; nutrient agar, pH 7.0, 2 days, 37° C.
Method: as §3

[19] = test system: Proteus mirabilis; assay: Minimal inhibitory concentration (agar); format: cell-based; conditions: 48 h, nutrient agar, pH 7.0, 2 days, 37° C.
Method: as §3

[20] = test system: Proteus vulgaris IFO 3167; assay: Minimal inhibitory concentration (agar); format: cell-based; conditions: IFO3167, 48 h, nutrient agar, pH 7.0, 2 days, 37° C.
Method: as §3

[21] = test system: Pseudomonas aeruginosa P-3; assay: Minimal inhibitory concentration (agar); format: cell-based; conditions: P3, 48 h, nutrient agar, pH 7.0, 2 days, 37° C.
Method: as §3

[22] = test system: Shigella sonnei E 33; assay: Minimal inhibitory concentration (agar); format: cell-based; conditions: E33, 48 h, nutrient agar, pH 7.0, 2 days, 37° C.
Method: as §3

[23] = test system: Staphylococcus aureus FS 1227 (PC-R); assay: Minimal inhibitory concentration (agar); format: cell-based; conditions: 48 h, nutrient agar, pH 7.0, 2 days, 37° C., penicillin resistant strain
Method: as §3

[24] = test system: Staphylococcus aureus KB 61 (R-TC, EM); assay: Minimal inhibitory concentration (agar); format: cell-based; conditions: 48 h, nutrient agar, pH 7.0, 2 days, 37° C., tetracyclin, erythromycin resistant strain, read-out: MIC
Method: as §3

[25] = test system: Staphylococcus aureus KB 64 (R-TC, EM); assay: Minimal inhibitory concentration (agar); format: cell-based; conditions: 48 h, nutrient agar, pH 7.0, 2 days, 37° C., tetracyclin, erythromycin resistant strain, read-out: MIC
Method: as §3

[26] = test system: Mycoplasma gallisepticum KP-13; assay: Antimycoplasma activity, inhibition zone; format: cell-based; conditions: Eiken PPLO agar, pH 7.8, 8 days, 37° C.
Method: E Eiken PPLO agar (pH 7.8, 8 days, 37° C.)
(§7) Nanaomycin A and derivatives thereof according to the present invention are assayed in a similar manner to that designated as the paper disc method by Itoh, et al [J. of Antibiotics, 24, 855-859 (1971)], for example, as follows: […]

[27] = test system: Acholeplasma laidlawii (A); assay: Antimycoplasma activity, inhibition zone; format: cell-based; conditions: Hokken PPLO agar, pH 7.8, 8 days, 37° C.
Method: H Hokken PPLO agar (pH 7.8, 8 days, 37° C.)
as §7

[28] = test system: Gram-positive bacteria; assay: Antibacterial activity (in words); format: cell-based
[29] = test system: mycoplasmas; assay: Antimycoplasma activity (in words); format: cell-based
[30] = Solubility; format: physicochemical
[31] = in vivo; conditions: mouse, ip
[32] = Bacillus subtilis, PCI219, 48 h, pH 7, nutrient agar, read-out: MIC
[33] = Micrococcus luteus, PCI1001, 48 h, pH 7, nutrient agar, read-out: MIC
[34] = Candida albicans, 96 h, pH 6.4, potato agar, read-out: MIC
[35] = Trichophyton rubrum, 96 h, pH 6.4, potato agar, read-out: MIC
[36] = Trichophyton, 96 h, pH 6.4, potato agar, read-out: MIC
[37] = Microsporum ferrugineum, 96 h, pH 6.4, potato agar, read-out: MIC

CC1OC(CC(=O)O)CC2=C1C(=O)c1c(O)cccc1C2=O (stereo not drawn) [Nanaomycin A, nanaomycin A]
MIC [1]: 3.9 µg/mL (≈ 12.9 µM)
MIC [2, 32]: 6.3 µg/mL (≈ 20.8 µM)
MIC ([2]; nutrient agar): 7.8 µg/mL (≈ 25.8 µM)
MIC [3, 33]: 1.6 µg/mL (≈ 5.29 µM)
MIC ([3]; nutrient agar): 2.0 µg/mL (≈ 6.62 µM)
MIC [4]: 2 µg/mL (≈ 6.62 µM)
MIC ([5]; nutrient agar): 100 µg/mL (≈ 331 µM)
MIC ([5]; pH 7, nutrient agar): 62.5 µg/mL (≈ 207 µM)
MIC [6, 34]: 50 µg/mL (≈ 165 µM)
MIC ([6]; potato agar): 31.2 µg/mL (≈ 103 µM)
MIC [7, 35]: < 0.2 µg/mL
MIC ([7]; potato agar): < 0.1 µg/mL
MIC [8, 36]: < 0.2 µg/mL
MIC ([8]; potato agar): 0.2 µg/mL (≈ 0.662 µM)
MIC ([9]; pH 6.4, potato agar): 12.5 µg/mL (≈ 41.4 µM)
MIC ([9]; potato agar): 31.2 µg/mL (≈ 103 µM)
MIC [10]: 0.8 µg/mL (≈ 2.65 µM)
MIC [11, 36]: 0.8 µg/mL (≈ 2.65 µM)
MIC ([11]; potato agar): 1.6 µg/mL (≈ 5.29 µM)
MIC [12, 37]: 0.8 µg/mL (≈ 2.65 µM)
MIC ([12]; potato agar): 1.6 µg/mL (≈ 5.29 µM)
MIC [13, 36]: < 0.2 µg/mL
MIC ([13]; potato agar): 0.4 µg/mL (≈ 1.32 µM)
MIC [14]: 100 µg/mL (≈ 331 µM)
MIC [15]: 6.3 µg/mL (≈ 20.8 µM)
MIC [16]: > 100 µg/mL
MIC [17]: 12.5 µg/mL (≈ 41.4 µM)
MIC [18]: 12.5 µg/mL (≈ 41.4 µM)
MIC [19]: > 100 µg/mL
MIC [20]: 50 µg/mL (≈ 165 µM)
MIC [21]: > 100 µg/mL
MIC [22]: 100 µg/mL (≈ 331 µM)
MIC [23]: 1.6 µg/mL (≈ 5.29 µM)
MIC [24]: 1.6 µg/mL (≈ 5.29 µM)
MIC [25]: 0.8 µg/mL (≈ 2.65 µM)
Inhibition Zone [26]: 28.7 mm
Inhibition Zone [27]: none
activity against Gram-positive bacteria [28]: strong activity
activity against mycoplasma(s) [29]: high activity
Solubility in ether [30]: Easily soluble
Solubility in methanol, ethanol, ethylacetate, chloroform and acetone [30]: Easily soluble
Solubility in n-hexane and petroleum ether [30]: Insoluble
Solubility in water [30]: Insoluble
LD50 [31]: 28.2 mg/kg

CC(=O)Oc1cccc2c1C(=O)C1=C(CC(CC(=O)O)OC1C)C2=O (stereo not drawn) [Acetylnanaomycin A, acetylnanaomycin A]
MIC [1]: 1.6 µg/mL (≈ 4.65 µM)
MIC [2, 32]: 3.1 µg/mL (≈ 9 µM)
MIC [3, 33]: 1.6 µg/mL (≈ 4.65 µM)
MIC [4]: 0.8 µg/mL (≈ 2.32 µM)
MIC ([5]; nutrient agar): 50 µg/mL (≈ 145 µM)
MIC [6, 34]: 25 µg/mL (≈ 72.6 µM)
MIC [7, 35]: < 0.2 µg/mL
MIC [8, 36]: < 0.2 µg/mL
MIC ([9]; pH 6.4, potato agar): 12.5 µg/mL (≈ 36.3 µM)
MIC [10]: 0.4 µg/mL (≈ 1.16 µM)
MIC [11, 36]: 0.8 µg/mL (≈ 2.32 µM)
MIC [12, 37]: 0.8 µg/mL (≈ 2.32 µM)
MIC [13, 36]: 0.4 µg/mL (≈ 1.16 µM)
MIC [14]: 50 µg/mL (≈ 145 µM)
MIC [15]: 6.3 µg/mL (≈ 18.3 µM)
MIC [16]: > 100 µg/mL
MIC [17]: 25 µg/mL (≈ 72.6 µM)
MIC [18]: 6.3 µg/mL (≈ 18.3 µM)
MIC [19]: > 100 µg/mL
MIC [20]: 50 µg/mL (≈ 145 µM)
MIC [21]: > 100 µg/mL
MIC [22]: 100 µg/mL (≈ 290 µM)
MIC [23]: 0.8 µg/mL (≈ 2.32 µM)
MIC [24]: 0.8 µg/mL (≈ 2.32 µM)
MIC [25]: 0.4 µg/mL (≈ 1.16 µM)
Inhibition Zone [26]: 28.5 mm
Inhibition Zone [27]: none
activity against Gram-positive bacteria [28]: a strong activity against Gram-positive bacteria than nanaomycin A
activity against mycoplasma(s) [29]: as strong activity against fungi and mycoplasmas as nanaomycin A
Solubility in ether [30]: Soluble
Solubility in methanol, ethanol, ethylacetate, chloroform and acetone [30]: Soluble
Solubility in n-hexane and petroleum ether [30]: Insoluble
Solubility in water [30]: Insoluble
LD50 [31]: 38.5 mg/kg
